Test results published in patent publication US11959086B2, “Dual transit peptides for targeting polypeptides” (BASF AGRO B.V., priority 2016, dated 2024).

Columns and labels:
[1] = tested on: Arabidopsis plants, construct hemG_tpFNR (SEQ ID NO 117); experiment: Tolerance of transgenic T1 Arabidopsis plants to herbicides, greenhouse (Tolerance Factor); assay type: in vivo, Arabidopsis thaliana
[2] = tested on: Arabidopsis plants, construct hemG_tpsAMATU_PPO2 (SEQ ID NO 119); experiment: as above; assay type: in vivo, Arabidopsis thaliana
[3] = tested on: Arabidopsis plants, construct hemG_tplAMATU_PPO2 (SEQ ID NO 118); experiment: as above; assay type: in vivo, Arabidopsis thaliana
[4] = tested on: Arabidopsis plants, construct hemF_tpFNR (SEQ ID NO 114); experiment: as above; assay type: in vivo, Arabidopsis thaliana
[5] = tested on: Arabidopsis plants, construct hemF_tpsAMATU_PPO2 (SEQ ID NO 116); experiment: as above; assay type: in vivo, Arabidopsis thaliana
[6] = tested on: Arabidopsis plants, construct hemF_tplAMATU_PPO2 (SEQ ID NO 115); experiment: as above; assay type: in vivo, Arabidopsis thaliana
[7] = tested on: Arabidopsis plants, construct RHOMA_PPO_wt_tpFNR (SEQ ID NO 123); experiment: as above; assay type: in vivo, Arabidopsis thaliana
[8] = tested on: Arabidopsis plants, construct RHOMA_PPO_wt_tpAMATU_PPO2 (SEQ ID NO 127); experiment: as above; assay type: in vivo, Arabidopsis thaliana
[9] = tested on: Arabidopsis plants, construct RHOMA_PPO_F420V_tpFNR (SEQ ID NO 124); experiment: as above; assay type: in vivo, Arabidopsis thaliana
[10] = tested on: Arabidopsis plants, construct OPITE_PPO_wt_tpFNR (SEQ ID NO 121); experiment: as above; assay type: in vivo, Arabidopsis thaliana
[11] = tested on: Arabidopsis plants, construct CHLSP_PPO_wt_tpFNR (SEQ ID NO 128); experiment: as above; assay type: in vivo, Arabidopsis thaliana
[12] = tested on: Wildtype/non-transgenic Arabidopsis thaliana; experiment: Herbicide injury evaluation of Arabidopsis plants, greenhouse; assay type: in vivo; details: scale 0-100
[13] = tested on: transgenic Arabidopsis thaliana, transgene SEQ ID NO 119; experiment: as above; assay type: in vivo; details: Table 3, scale 0-100
[14] = tested on: transgenic Arabidopsis thaliana, transgene SEQ ID NO 117; experiment: as above; assay type: in vivo; details: Table 3, scale 0-100
[15] = tested on: transgenic Arabidopsis thaliana, transgene SEQ ID NO 118; experiment: as above; assay type: in vivo; details: scale 0-100
[16] = tested on: transgenic Arabidopsis thaliana, transgene SEQ ID NO 121; experiment: as above; assay type: in vivo; details: Table 3, scale 0-100
[17] = tested on: transgenic Arabidopsis thaliana, transgene SEQ ID NO 128; experiment: as above; assay type: in vivo; details: Table 3, scale 0-100
[18] = tested on: transgenic Arabidopsis thaliana, transgene SEQ ID NO 120; experiment: as above; assay type: in vivo; details: Table 4, scale 0-100

What does the source list for `C#CCN1C(=O)C(F)(F)Oc2cc(F)c(-n3c(=O)n(C)c(=S)n(C)c3=O)cc21` [Trifludimoxazine, 1,5-dimethyl-6-thioxo-3-(2,2,7-trifluoro-3-oxo-4-(prop-2-ynyl)-3,4-dihydro-2H-benzo[b][1,4]oxazin-6-yl)-1,3,5-triazinane-2,4-dione]?
Tolerance Factor [1]: 4433; Tolerance Factor [2]: 1; Tolerance Factor [3]: 9167; Tolerance Factor [4]: 1; Tolerance Factor [5]: 1; Tolerance Factor [6]: 1; Tolerance Factor [7]: 1; Tolerance Factor [8]: 1; Tolerance Factor [9]: 1; Tolerance Factor [10]: 9; Tolerance Factor [11]: 1500; Herbicide injury evaluation 14 days after herbicide treatment ([12]; Table 3, 25 g ai/ha + 1% MSO): 100; Herbicide injury evaluation 14 days after herbicide treatment ([12]; Table 3, 75 g ai/ha + 1% MSO): 100; Herbicide injury evaluation 14 days after herbicide treatment ([12]; Table 3, 150 g ai/ha + 1% MSO): 100; Herbicide injury evaluation 14 days after herbicide treatment ([12]; Table 4, 25 g ai/ha + 1% MSO): 100; Herbicide injury evaluation 14 days after herbicide treatment ([12]; Table 4, 75 g ai/ha + 1% MSO): 100; Herbicide injury evaluation 14 days after herbicide treatment ([12]; Table 4, 150 g ai/ha + 1% MSO): 100; Herbicide injury evaluation 14 days after herbicide treatment ([13]; SEQ ID NO 119 A, 25 g ai/ha + 1% MSO): 100; Herbicide injury evaluation 14 days after herbicide treatment ([13]; SEQ ID NO 119 A, 75 g ai/ha + 1% MSO): 100; Herbicide injury evaluation 14 days after herbicide treatment ([13]; SEQ ID NO 119 A, 150 g ai/ha + 1% MSO): 100; Herbicide injury evaluation 14 days after herbicide treatment ([13]; SEQ ID NO 119 B, 25 g ai/ha + 1% MSO): 100; Herbicide injury evaluation 14 days after herbicide treatment ([13]; SEQ ID NO 119 B, 75 g ai/ha + 1% MSO): 100; Herbicide injury evaluation 14 days after herbicide treatment ([13]; SEQ ID NO 119 B, 150 g ai/ha + 1% MSO): 100; Herbicide injury evaluation 14 days after herbicide treatment ([14]; SEQ ID NO 117 C, 25 g ai/ha + 1% MSO): 92; Herbicide injury evaluation 14 days after herbicide treatment ([14]; SEQ ID NO 117 C, 75 g ai/ha + 1% MSO): 93; Herbicide injury evaluation 14 days after herbicide treatment ([14]; SEQ ID NO 117 C, 150 g ai/ha + 1% MSO): 97; Herbicide injury evaluation 14 days after herbicide treatment ([14]; SEQ ID NO 117 I, 25 g ai/ha + 1% MSO): 90; Herbicide injury evaluation 14 days after herbicide treatment ([14]; SEQ ID NO 117 I, 75 g ai/ha + 1% MSO): 99; Herbicide injury evaluation 14 days after herbicide treatment ([14]; SEQ ID NO 117 I, 150 g ai/ha + 1% MSO): 98; Herbicide injury evaluation 14 days after herbicide treatment ([15]; Table 3, SEQ ID NO 118 Q, 25 g ai/ha + 1% MSO): 45; Herbicide injury evaluation 14 days after herbicide treatment ([15]; Table 3, SEQ ID NO 118 Q, 75 g ai/ha + 1% MSO): 50; Herbicide injury evaluation 14 days after herbicide treatment ([15]; Table 3, SEQ ID NO 118 Q, 150 g ai/ha + 1% MSO): 58; Herbicide injury evaluation 14 days after herbicide treatment ([15]; Table 3, SEQ ID NO 118 R, 25 g ai/ha + 1% MSO): 20; Herbicide injury evaluation 14 days after herbicide treatment ([15]; Table 3, SEQ ID NO 118 R, 75 g ai/ha + 1% MSO): 23; Herbicide injury evaluation 14 days after herbicide treatment ([15]; Table 3, SEQ ID NO 118 R, 150 g ai/ha + 1% MSO): 10; Herbicide injury evaluation 14 days after herbicide treatment ([15]; Table 4, SEQ ID NO 118 Q, 25 g ai/ha + 1% MSO): 60; Herbicide injury evaluation 14 days after herbicide treatment ([15]; Table 4, SEQ ID NO 118 Q, 75 g ai/ha + 1% MSO): 63; Herbicide injury evaluation 14 days after herbicide treatment ([15]; Table 4, SEQ ID NO 118 Q, 150 g ai/ha + 1% MSO): 65; Herbicide injury evaluation 14 days after herbicide treatment ([15]; Table 4, SEQ ID NO 118 R, 25 g ai/ha + 1% MSO): 18; Herbicide injury evaluation 14 days after herbicide treatment ([15]; Table 4, SEQ ID NO 118 R, 75 g ai/ha + 1% MSO): 28; Herbicide injury evaluation 14 days after herbicide treatment ([15]; Table 4, SEQ ID NO 118 R, 150 g ai/ha + 1% MSO): 50; Herbicide injury evaluation 14 days after herbicide treatment ([16]; SEQ ID NO 121 G, 25 g ai/ha + 1% MSO): 100; Herbicide injury evaluation 14 days after herbicide treatment ([16]; SEQ ID NO 121 G, 75 g ai/ha + 1% MSO): 100; Herbicide injury evaluation 14 days after herbicide treatment ([16]; SEQ ID NO 121 G, 150 g ai/ha + 1% MSO): 100; Herbicide injury evaluation 14 days after herbicide treatment ([16]; SEQ ID NO 121 H, 25 g ai/ha + 1% MSO): 100; Herbicide injury evaluation 14 days after herbicide treatment ([16]; SEQ ID NO 121 H, 75 g ai/ha + 1% MSO): 100; Herbicide injury evaluation 14 days after herbicide treatment ([16]; SEQ ID NO 121 H, 150 g ai/ha + 1% MSO): 100; Herbicide injury evaluation 14 days after herbicide treatment ([17]; SEQ ID NO 128 D, 25 g ai/ha + 1% MSO): 85; Herbicide injury evaluation 14 days after herbicide treatment ([17]; SEQ ID NO 128 D, 75 g ai/ha + 1% MSO): 93; Herbicide injury evaluation 14 days after herbicide treatment ([17]; SEQ ID NO 128 D, 150 g ai/ha + 1% MSO): 93; Herbicide injury evaluation 14 days after herbicide treatment ([17]; SEQ ID NO 128 E, 25 g ai/ha + 1% MSO): 85; Herbicide injury evaluation 14 days after herbicide treatment ([17]; SEQ ID NO 128 E, 75 g ai/ha + 1% MSO): 95; Herbicide injury evaluation 14 days after herbicide treatment ([17]; SEQ ID NO 128 E, 150 g ai/ha + 1% MSO): 97; Herbicide injury evaluation 14 days after herbicide treatment ([18]; SEQ ID NO 120 J, 25 g ai/ha + 1% MSO): 80; Herbicide injury evaluation 14 days after herbicide treatment ([18]; SEQ ID NO 120 J, 75 g ai/ha + 1% MSO): 94; Herbicide injury evaluation 14 days after herbicide treatment ([18]; SEQ ID NO 120 J, 150 g ai/ha + 1% MSO): 98; Herbicide injury evaluation 14 days after herbicide treatment ([18]; SEQ ID NO 120 M, 25 g ai/ha + 1% MSO): 94; Herbicide injury evaluation 14 days after herbicide treatment ([18]; SEQ ID NO 120 M, 75 g ai/ha + 1% MSO): 98; Herbicide injury evaluation 14 days after herbicide treatment ([18]; SEQ ID NO 120 M, 150 g ai/ha + 1% MSO): 93
